For six compounds, IC50 and Ki results are on record in ChEMBL document CHEMBL1144205, “Screening of herbal constituents for aromatase inhibitory activity” (Bioorg Med Chem, 2008).

The target in one test is T1, Aromatase (Homo sapiens, UniProt P11511).
T1 sequence (P11511 whole entry): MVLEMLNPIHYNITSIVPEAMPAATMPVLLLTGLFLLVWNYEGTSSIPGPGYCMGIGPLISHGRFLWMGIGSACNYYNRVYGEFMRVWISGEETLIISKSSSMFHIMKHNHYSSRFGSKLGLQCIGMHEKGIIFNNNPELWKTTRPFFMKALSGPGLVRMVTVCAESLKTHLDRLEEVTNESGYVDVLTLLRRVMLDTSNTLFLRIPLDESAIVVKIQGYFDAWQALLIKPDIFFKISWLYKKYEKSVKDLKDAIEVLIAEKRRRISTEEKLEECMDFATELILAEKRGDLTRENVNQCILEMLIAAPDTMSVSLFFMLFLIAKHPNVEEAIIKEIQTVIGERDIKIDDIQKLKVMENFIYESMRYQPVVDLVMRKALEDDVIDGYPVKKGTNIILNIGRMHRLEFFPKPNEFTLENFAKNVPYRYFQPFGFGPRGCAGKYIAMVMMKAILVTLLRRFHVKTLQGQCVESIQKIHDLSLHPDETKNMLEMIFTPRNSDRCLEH
In words: Inhibition of human aromatase by fluorometric assay.
Turning to `O=c1c(O)c(-c2ccc(O)c(O)c2)oc2c(O)c(O)cc(O)c12` [GOSSYPETIN], the half-maximal inhibitory concentration (IC50) (commonly the concentration that inhibits the measured activity by half) stood at 11 µM. This lies in the double-digit micromolar range. The same measure, in the same setting: to `O=C1C[C@@H](c2ccc(O)cc2)Oc2cc(O)ccc21` [LIQUIRTIGENIN] belongs 0.34 µM.

In turn, `O=c1c(O)c(-c2cc(O)c(O)c(O)c2)oc2cc(O)cc(O)c12` [MYRICETIN] showed an IC50 of 10 µM.

Another test has as its target T1, Aromatase. In words: Inhibition of human aromatase expressed in CHO cells. In kind it is cell-based.
As to `O=c1c(-c2ccc(O)cc2)coc2cc(O)ccc12` [DAIDZEIN], the Ki (usually the dissociation constant of the complex between target and ligand, obtained from inhibition or displacement) turned out to be 100 µM.

Compound `O=c1c(O)c(-c2ccccc2)oc2cc(O)cc(O)c12` [GALANGIN] returned a Ki of 100 µM. Turning to `O=c1c(-c2ccc(O)cc2)coc2cc(O)cc(O)c12` [GENISTEIN], the inhibition constant (Ki) came to 100 µM.
